Read-outs that look alike come from different tables or passages of the source.
Key:
[1] = target: T1, human recombinant TF/VIIa complex (lipidated) (Homo sapiens, UniProt P13726); assay: TF/VIIa-dependent FX activation assay; assay type: biochemical; conditions: for outcome of primary and secondary screening (TF antagonism): inhibit FX activation at lower concentrations (<0.1 mM) without significant effects on protease activities; for blocking activity in standard assay for TF/VIIa-dependent factor X activation: statement on FIG. 3
T1 construct: Truncated recombinant human tissue factor (e.g. composed of 243 amino acids) is expressed in E. coli; host or cells: E. coli (TF)
Experimental: A more particular example of the primary screening assay discussed previously is as follows. The assay is standard for measuring TF/VIIa-dependent factor X activation. […] In a more preferred embodiment, the primary screening preferably includes the following steps. • 1) admixing in a suitable assay solution about 0.1 nM of human recombinant TF/VIIa complex (lipidated), about 180 nM human FX, and between from about 0.5 μl to about 10 μl of at least one compound to be tested (optionally dissolved in an appropriate vehicle such as water or dimethylsulfoxide (DMSO)) and incubating the reaction at 37° C. for a few minutes up to about an hour or more, • 2) contacting the solution with a suitable chelating agent such as ethylenediaminietetra acetic acid (EDTA) to reduce or stop factor X activation, • 3) contacting the solution with a detectable amount of a chromogenic substrate specific for FXa (e.g., Spectrozyme FXa or S-2765) and incubating same at 37° C.; and • 4) detecting chromophore produced in the solution as being indicative of the factor X activation.
The primary screening for compounds that inhibit tissue factor/factor VIIa (TF/VIIa) is based on TF/VIIa-dependent FX activation assay (See flow chart in FIG. 1 of the drawings). In this assay, the ability of TF/VIIa complex to activate FX is determined in two discontinuous stages. […] In the second stage (FXa activity assay), EDTA is added at indicated times to the FX activation mixture to chelate calcium, thus leading to the termination of FX→FXa conversion. Calcium is required for TF/VIIa activity. The activity of FXa is then measured by FXa-specific chromogenic substrates such as S-2222, S-2765, or Spectrozyme FXa. In the primary screening, compounds from a previously prepared chemical library are first tested at relatively high concentrations (˜0.833 mM) in TF/VIIa-dependent FX activation assay to identify hits of potential TF pathway antagonists (see FIG. 1). However, it is evident that the inhibition of TF/VIIa-dependent FX activation by a compound in this enzyme-coupled assay can be attributed to effects of the compound on TF/VIIa and/or FXa activities. Thus, secondary screening tests are designed to determine how inhibition takes place and the inhibition mechanism. In secondary screening experiments, effects of those compounds identified from primary screening are tested on catalytic activities of factor VIIa (FVIIa), factor IXa (FIXa), factor Xa (FXa), thrombin, Russell's viper venom (RVV), and trypsin.
Primary screening was done in duplicate in 96-well plates using the TF/VIIa-dependent FX activation assay. All compounds to be screened were dissolved in dimethyl sulfoxide (DMSO), other reagents were prepared or diluted in 25 mM HEPES-NaOH, 5 mM CaCl2, 150 mM NaCl, 0.1% BSA, pH 7.5. For assays where TF was used, purified human recombinant TF (100 nM) was first lipidated with phosphatidylcholine (0.07 mg/ml) and phosphatidylserine (0.03 mg/ml) in 50 mM Tris-HCl, pH 7.5, 0.1% bovine serum albumin (BSA) for 30 minutes at 37° C. A stock solution of TF/VIIa complex was then prepared by combining equal volumes of 100 nM lipidated TF and 100 nM FVIIa The complex was incubated at 37° C. for 30 minutes and then was aliquoted and stored at −70° C. for future uses.
For screening assays, 5 μl of each compound (about 10 mM in DMSO) or DMSO were placed in each well of a 96-well plate, followed by adding 45 μl of TF/VIIa complex (0.1 nM). The components in each well were mixed either with pipette tips or by shaking the plate on a Lab-Line titer plate shaker for 30 seconds. After 15 minutes incubation of the plate at a 37° C., 10 μl of human FX (180 nM) was added to each well and mixed as above. The plate was then incubated at 37° C. for 3 to 15 minutes, followed by addition of 10 μl of EDTA (400 mM in 144 mM HEPES, 864 mM NaCl, 0.576% BSA, pH adjusted to 7.5) to each well to terminate FX activation. […]

FXa = target: T2, FXa (Homo sapiens, UniProt P00742); assay: FXa activity assay; assay type: biochemical; conditions: statement on Table 1 (FIG. 2(a))
T2 construct: FX is converted to FXa by TF/VIIa complex in the absence of any compound; purchased Enzyme Research Laboratories Inc
Experimental: FX is converted to FXa by TF/VIIa complex in the absence of any compound. To do that, 54 μl of TF/VIIa (50 nM) was added to 27 ml of buffer in a 50-ml tube. Then 6 ml of FX (180 nM) was added and incubated at 37° C. for 15 minutes. Six ml of EDTA was added to stop FX activation. Five μl of compound or DMSO was placed in each well of a 96-well plate in duplicate, then 65 μl of FXa generated above was added to each well and mixed. After incubation for 15 minutes at 37° C., 10 μl of FXa substrate Spectrozyme FXa was added and incubated for 20 minutes at 37° C. Absorbance at 405 nm was then measured following addition of 20 μl of 50% acetic acid. The percent inhibition of FXa activity was calculated from OD405 nm values in the absence and presence of a compound.

[2] = titration, data of Table 3 (FIG. 2(c)), primary screening method, read-out: IC50 (inhibitor concentration at which 50% of TF/VIIa-dependent FX activation is inhibited)

T1 sequence (P13726 33-275 limits assumed): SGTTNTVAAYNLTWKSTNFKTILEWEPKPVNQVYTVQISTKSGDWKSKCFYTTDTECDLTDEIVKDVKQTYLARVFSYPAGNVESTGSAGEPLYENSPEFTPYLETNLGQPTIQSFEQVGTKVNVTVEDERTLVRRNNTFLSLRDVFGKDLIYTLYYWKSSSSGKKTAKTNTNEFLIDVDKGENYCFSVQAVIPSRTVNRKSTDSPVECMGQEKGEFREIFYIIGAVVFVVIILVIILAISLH
T1 sequence (P08709 61-212 partner limits assumed): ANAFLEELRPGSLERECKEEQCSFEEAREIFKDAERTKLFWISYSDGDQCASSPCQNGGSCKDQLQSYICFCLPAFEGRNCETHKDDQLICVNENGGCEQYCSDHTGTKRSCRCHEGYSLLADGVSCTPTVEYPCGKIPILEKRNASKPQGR
T1 sequence (P08709 213-466 partner limits assumed): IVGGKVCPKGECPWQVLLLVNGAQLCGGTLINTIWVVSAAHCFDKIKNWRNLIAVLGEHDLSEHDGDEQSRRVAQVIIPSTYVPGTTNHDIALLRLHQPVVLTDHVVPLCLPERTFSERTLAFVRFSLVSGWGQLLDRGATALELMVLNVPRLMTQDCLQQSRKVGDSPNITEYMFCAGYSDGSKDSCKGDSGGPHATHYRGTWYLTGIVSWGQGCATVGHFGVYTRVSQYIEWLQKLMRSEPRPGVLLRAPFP
T2 sequence (P00742 235-488 limits assumed): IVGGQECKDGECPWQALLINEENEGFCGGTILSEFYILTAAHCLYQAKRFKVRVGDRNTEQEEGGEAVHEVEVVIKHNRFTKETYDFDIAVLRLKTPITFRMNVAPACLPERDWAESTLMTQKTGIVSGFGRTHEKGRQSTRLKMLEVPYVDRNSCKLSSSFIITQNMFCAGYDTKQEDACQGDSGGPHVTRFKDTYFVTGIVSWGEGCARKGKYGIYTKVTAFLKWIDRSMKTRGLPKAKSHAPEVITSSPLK
T2 sequence (P00742 41-179 limits assumed): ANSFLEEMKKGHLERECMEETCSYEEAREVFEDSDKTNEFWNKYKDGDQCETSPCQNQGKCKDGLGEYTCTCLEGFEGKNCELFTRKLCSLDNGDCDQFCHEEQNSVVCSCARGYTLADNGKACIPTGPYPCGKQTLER

| SMILES | IC50 ([1]; compound preincubated with TF/VIIa 15 minutes at 37° C. prior to FX, FX 30 nM, read-out: IC50, TF/VIIa-dependent FX activation) | outcome of primary and secondary screening (TF antagonism) [1] | effect on apparent Km values for FX substrate ([1]; kinetic analysis, FIG. 5) | mode of inhibition of TF/VIIa complex ([1]; kinetic analysis, FIG. 5) | blocking activity in standard assay for TF/VIIa-dependent factor X activation [1] | IC50 [1, 2] | inhibition of FXa activity (FXa) |
| --- | --- | --- | --- | --- | --- | --- | --- |
| O=P(O)(O)C(CNc1cccc(O)c1)P(=O)(O)O [Compound 1, 1-(bisphosponate)-2-amino(3-hydroxyphenyl)ethyl] | 12.5 µM | strong TF antagonists | significantly increased | competitive inhibitor | good blocking activity | 19 µM | do not inhibit FXa activity |
| O=P(O)(O)C(CNc1ccc(O)cc1)P(=O)(O)O [Compound 2] | – | strong TF antagonists | – | – | good blocking activity | 9.7 µM | do not inhibit FXa activity |

From US7199113B2, “Pharmaceutically active compounds and methods of use thereof” (priority 1998, dated 2007)
